Data as given in US10363239B2, “Method for inhibiting growth of cancer cells” (Pain Therapeutics, Inc., priority 2013, dated 2019).
Read-outs that look alike come from different tables or passages of the source.

Key:
mu opiate receptor (MOR) = experiment: MOR agonist activity using [35S]GTPγS binding assay in striatal membranes; format: biochemical; details: for % DAMGO (0.1 μM) / % DAMGO (1 μM): relative to DAMGO; for % DAMGO + BFNA: 1 μM compound + β-FNA, relative to DAMGO + BFNA
Procedure, shortened: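 Striatal membranes (200 μg) were preincubated 5 min at 30 °C in HEPES pH 7.5 with 100 mM NaCl, 1 mM MgCl2 and 0.5 nM [35S]GTPγS, then 5 min more with 0.1–10 μM compound. Gαo was immunoprecipitated and bound radioactivity counted by scintillation.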

[1] = target: FLNA pentapeptide of SEQ ID NO: 1 (Bn-VAKGL) (Homo sapiens, UniProt P21333); experiment: FITC-NLX-based FLNA screening assay (inhibition of FITC-naloxone binding to Bn-VAKGL on streptavidin plates); details: 10 nM FITC-NLX
[2] = Series C-2, 0.1 μM compound, [35S]GTPγS binding to Gαo, striatal membranes
[3] = Series C-2, 1 μM compound + 1 μM β-FNA
[4] = Series C-2, 1 μM compound, [35S]GTPγS binding to Gαo, striatal membranes
[5] = read-out: Percent Binding Inhibition, FLNA-binding compound 0.01 μM
[6] = read-out: Percent Binding Inhibition, FLNA-binding compound 0.1 μM
[7] = read-out: Percent Binding Inhibition, FLNA-binding compound 1 μM
[8] = Series B, 0.1 μM compound, [35S]GTPγS binding to Gαo, striatal membranes
[9] = Series B, 1 μM compound + 1 μM β-FNA
[10] = Series B, 1 μM compound, [35S]GTPγS binding to Gαo, striatal membranes

Row | SMILES | % DAMGO (0.1 μM) (mu opiate receptor (MOR); Series C-2, 0.1 μM compound) | MOR agonist activity, percent [35S]GTPγS binding at the stated compound concentration (mu opiate receptor (MOR); [2]) | MOR agonist activity, percent [35S]GTPγS binding at the stated compound concentration (mu opiate receptor (MOR); [3]) | % DAMGO + BFNA (mu opiate receptor (MOR); Series C-2) | % DAMGO (1 μM) (mu opiate receptor (MOR); Series C-2, 1 μM compound) | MOR agonist activity, percent [35S]GTPγS binding at the stated compound concentration (mu opiate receptor (MOR); [4]) | inhibition at 0.01 µM [1, 5] | inhibition at 0.1 µM [1, 6] | inhibition at 1 µM [1, 7] | % DAMGO (0.1 μM) (mu opiate receptor (MOR); Series B, 0.1 μM compound) | MOR agonist activity, percent [35S]GTPγS binding at the stated compound concentration (mu opiate receptor (MOR); [8]) | MOR agonist activity, percent [35S]GTPγS binding at the stated compound concentration (mu opiate receptor (MOR); [9]) | % DAMGO + BFNA (mu opiate receptor (MOR); Series B) | % DAMGO (1 μM) (mu opiate receptor (MOR); Series B, 1 μM compound) | MOR agonist activity, percent [35S]GTPγS binding at the stated compound concentration (mu opiate receptor (MOR); [10]) | inhibition at 0.01 µM ([1]; FLNA-binding compound 0.01 μM, read-out: Percent Binding Inhibition) | inhibition at 0.1 µM ([1]; FLNA-binding compound 0.1 μM, read-out: Percent Binding Inhibition) | inhibition at 1 µM ([1]; FLNA-binding compound 1 μM, read-out: Percent Binding Inhibition)
1 | CN1CCC2(CC1)OCCN2S(=O)(=O)c1ccc(S(C)(=O)=O)cc1 [Compound C0106M] | 102.5% | 171.8% | 117.2% | 246.7% | 108.3% | 240.7% | 45.8% | 55.6% | 58.9% | – | – | – | – | – | – | – | – | –
2 | COc1cc(OC)cc(C(=O)CC2c3c(cc4c(c3OC)OCO4)CC[N+]2(C)C)c1 (stereo not drawn) [Compound B0035] | – | – | – | – | – | – | 45.4% | 44.7% | 51% | 109.8% | 188.0% | 74.2% | 142.4% | 93.2% | 248.7% | – | – | –
3 | COc1c2c(cc3c1C(CC(=O)/C=C/c1ccc(Cl)cc1)[N+](C)(C)CC3)OCO2 (stereo not drawn) [Compound B0019] | – | – | – | – | – | – | 34.3% | 41% | 49% | 59.7% | 101.0% | 81.4% | 123.3% | 96.0% | 256.5% | – | – | –
4 | O=C1CNC2(CCNCC2)N1Cc1ccccc1 [Compound C0114M] | 77.6% | 114.0% | 35.9% | 91.3% | 71.4% | 144.3% | 57.1% | 63.2% | 66.7% | – | – | – | – | – | – | – | – | –
5 | COc1ccc(CCC(O)CC2c3c(cc4c(c3OC)OCO4)CCN2C)cc1 (stereo not drawn) [Compound B0048] | – | – | – | – | – | – | – | – | – | 104.8% | 185.1% | 78.5% | 298.5% | 87.8% | 223.4% | 34.7% | 41.9% | 43.9%
6 | COc1ccc(S(=O)(=O)N2CCC3(CC2)NCCC(=O)N3)cc1 [Compound C0142M] | 97.8% | 143.7% | 98.7% | 251.1% | 95.2% | 192.5% | 35.1% | 39.4% | 56% | – | – | – | – | – | – | – | – | –
7 | COc1ccc(C(=O)CC2c3c(cc4c(c3OC)OCO4)CC[N+]2(C)C)c(F)c1 (stereo not drawn) [Compound B0027] | – | – | – | – | – | – | 40.2% | 46.7% | 49.8% | 82.3% | 140.9% | 21.6% | 41.5% | 100.0% | 266.9% | – | – | –
